Paper PMC5555576, “Selective small-chemical inhibitors of protein arginine methyltransferase 5 with anti-lung cancer activity” (PLoS ONE, 2017)
Where “and” joins values, the source holds several entries; their conditions need not be identical. Equal entries are not always repeated. Where two headings read alike, the source gives them in different places.

Legend:
[1] = system: PRMT5; settings: cited from earlier work; for selectivity for PRMT5: versus PRMT1, CARM1, or PRMT7
[2] = system: A549 cells; assay: Cellular permeability and stability by HPLC of cell extracts; type: in vitro ADME; settings: 2 hr in medium with compound
Procedure: Waters 2695 HPLC System and a C18 column (Symmetry, 3.6 x 75 mm) were used. The column was equilibrated with 10% acetonitrile and eluated with a linear gradient from 10% acetonitrile to 100% acetonitrile in 60 min. Compounds were dissolved in 10% acetonitrile and the purchased compounds (ChemBridge) were used as the standards.
We then determined whether the identified compounds are cell-permeable. Lung cancer A549 cells were cultured in medium containing various concentrations of the respective compound for 2 hr. Cells were harvested and washed with PBS. The compounds were extracted with ethyl acetate from cells and analyzed by HPLC with a C18 column using the purchased compound as the standard. Compounds C2, C5, C9 and C11 are cell-permeable (Fig 6A), which is consistent with their tPSAs <140 angstroms square (Table 1). […] We even noticed that the compound C5 crystalized inside the cells.
A, The cellular permeability of identified compounds. Lung cancer A549 cells were cultured in the presence of various concentrations of compounds for 2h and the compound concentrations in the cell were determined by HPLC chromatography with a C18 column. B, The cellular stability of identified compounds. Lung cancer A549 cells were cultured in the presence of compounds (20 μM) for 2 h and then the medium was removed. Cells were washed with the medium and cultured for additional 5 or 10 h after the compounds were removed. The compound concentrations in the cell were determined by HPLC chromatography with a C18 column. […] A549 cells were grown in the presence of DMSO or compound C5, C9 or C11 (20 μM). Histones were purified and analyzed by SDS-PAGE stained with Commassie blue (lanes 1–4, bottom) or by Western blot with anti-symmetric dimethyl arginine antibody (SYM10) (lanes 1–4, top). B-Raf was immunoprecipitated with anti-B-Raf antibody from whole cell lysates and submitted for Western blot analysis with anti-B-Raf (lanes 5 and 6, bottom) or anti-symmetric dimethyl arginine (lanes 5 and 6, top) antibody.

[3] = target: T1, PRMT5 (Homo sapiens, UniProt O14744); assay: Radioactive methyltransferase assay, PRMT5; type: biochemical; settings: methylation of SmD3 by PRMT5; Table 1 prints no unit, μM; read-out: IC50
T1 construct: His6; made in house; host or cells: E. coli BL21(ED3) [sic]
Procedure: (§1) Methylation reactions were performed as previously described with a few modifications. Reaction mixtures (40 μl) containing 1.2 μg of PRMT5, 98 ng of PRMT1 or 98 ng of PRMT3; 2 μg of SmD3 or histones; 1 μCi of S-[methyl-^3H]adenosylmethionine (H^3-AdoMet; PerkinElmer); and 5 μM AdoMet were incubated in 50 mM Tris-HCl (pH 7.5)–1 mM EGTA–1 mM EDTA at 30°C for 2 h. Reaction mixtures (20 μl) were boiled in 5 μl of 5x SDS sample buffer and separated on a 15% polyacrylamide gel. Gels were fixed for 30 min in 40% methanol–10% acetic acid, incubated in 20 ml of Amplify (Amersham Life Science) for 10 min, dried and exposed to X-ray film at -80°C. IC50 was calculated by linear regression analysis of percent inhibition. The other half (20 μl) of each reaction mixture was spread onto DE81 chromatography paper discs (Whatman). The paper discs were washed 4 times with 50 mM NaHCO3 and dried. The amounts of methylated products were quantified by liquid scintillation.
In vitro methylation reactions were performed with recombinant PRMT5 (1.2 μg), PRMT1 ([…]) or PRMT3 (89 ng); [H^3]-AdoMet; and different substrates in the presence of identified compounds. […] The recombinant SmD3 (2 μg) was used as the substrate in the absence (lane 2) or presence of 1, 10 or 100 μM compounds as indicated. Reaction mixtures were separated on an SDS–15% polyacrylamide gel and the gel was dried under vacuum and exposed to film. […] Recombinant histones H4 or H2A (1 μg) were used as substrates of PRMT5 in the methylation assay in the absence or presence of 100 μM compounds as indicated. Reaction mixtures were spread onto DE81 chromatography paper discs. After a wash, the amounts of methylated products on discs were quantified by liquid scintillation. […] PRMT1 was incubated with purified histones (1 μg) or recombinant E2F1 (1 μg) as substrates in the absence (lane 2) or presence of 100 μM compounds as indicated. Reaction mixtures were separated on an SDS–15% polyacrylamide gel and the gel was dried and exposed to film.

[4] = target: T2, PRMT5 F225M (Homo sapiens, UniProt O14744, F327M); assay: Radioactive methyltransferase assay, mutant PRMT5; type: biochemical; settings: F225M mutant PRMT5, SmD3 substrate, Fig 4D
T2 construct: His6; made in house; host or cells: bacteria (E. coli BL21(ED3) for the wild type)
Procedure: as §1
(§2) The inhibitory activity of the compounds may stem from this interaction. To test this possibility, we conducted site-directed mutagenesis to mutate Phe225 in human PRMT5 (corresponding to Phe379 in the C. elegans PRMT5) to Met. The mutated PRMT5 was expressed in bacteria and purified by Ni-nitrilotriacetic acid (Ni-NTA) affinity chromatography (Fig 4A). The activity of the mutant PRMT5 was examined by the radioactive methyltransferase assay. […] The IC50 values for the mutant PRMT5 increased from 4.3 to 183 folds higher than those for the wild type PRMT5 (Fig 4D). […] The results also can help explain the specificity of the compounds to PRMT5. However, the contribution of this interaction to inhibition varies among the compounds. For example, compound C2 interacts with three amino acid residues (Lys451, Glu450, and Phe379) (Fig 3A) with the mutation of Phe to Met resulting in a 50-times higher IC50 (Fig 4C and 4D).
(§3) Fig 4 The conserved phenylalanine residue in PRMT5 is critical for inhibition by the five compounds. A, DS-PAGE of recombinant wild type (WT) and F225M mutant (MT) PRMT5. The gel was stained with Coomassie Brilliant Blue R250. A band corresponding to an unknown bacterial protein is indicated (star). B, The F225M mutation increased the methytransferase activity of PRMT5. In vitro methylation reactions were performed with recombinant wild type (lanes 2–4) or mutant (lanes 5–7) PRMT5 (1.2, 2.4 or 4.8 μg) and SmD3 (2 μg) as the substrate. C, The F225M mutation in PRMT5 decreased inhibition of arginine methylation by the compounds. The reaction mixture contained SmD3 (2 μg); wild type or mutant PRMT5 (1.2 μg); and 1, 10 or 100 μM compounds as indicated. D, The F225M mutation in PRMT5 […] of the compounds, as determined by quantitation and analysis of methylation assay results. TEXT PRINTED IN THE PICTURE: (D) C2: IC50 (μM) PRMT5: 0.1; IC50 (μM) PRMT5 F225M: 5.0 | (D) C5: IC50 (μM) PRMT5: 0.8; IC50 (μM) PRMT5 F225M: 3.5 | (D) C6: IC50 (μM) PRMT5: 0.5; IC50 (μM) PRMT5 F225M: 7.0 | (D) C9: IC50 (μM) PRMT5: 6.0; IC50 (μM) PRMT5 F225M: 45.0 | (D) C11: IC50 (μM) PRMT5: 0.3; IC50 (μM) PRMT5 F225M: 55.0

[5] = target: T1, PRMT5; assay: Steady-state kinetic analysis of PRMT5 inhibition (time-dependent inhibition assay); type: biochemical
Procedure: Different amounts of compound C2 or C5 were present in the final methylation reaction mixtures with 1.2 μg of PRMT5, 5 μM AdoMet, 2 μCi of H^3-AdoMet and various concentrations of SmD3. After a 10-, 20- or 30-min incubation at 30 °C or no incubation, the reaction mixtures were spread onto DE81 chromatography paper discs and the amounts of methylated products were quantified by liquid scintillation. Amounts (counts per minute [cpm]) of methylated products and incubation time (minutes) were plotted and reaction velocity (cpm per minute) was deduced.
To understand the mechanism of inhibition of identified compounds, we analyzed the kinetic pattern of inhibition using steady-state enzymatic measurements. The velocities of PRMT5 methylation of SmD3 were measured at several selected concentrations of compounds C2 and C5 over a range of SmD3 concentrations. Plotted in the double-reciprocal format with 1/velocity versus 1/[SmD3]
Fig 5 Steady-state kinetic analysis of PRMT5 inhibition by compounds C2 and C5. Double-reciprocal plot of reaction velocities (cpm per minute) versus concentrations of SmD3. Methylation reaction mixtures contained various concentrations of C2 (left) or C5 (right), various concentrations of SmD3, 1.2 μg of PRMT5 and 5 μM AdoMet. The mixtures were incubated for different times and the amounts of methylated products were quantified using DE81 paper and liquid scintillation. Reaction velocity was calculated as H^3 incorporation (cpm) into SmD3 per minute.

[6] = system: PRMT5 F225M; assay: Radioactive methyltransferase assay, mutant PRMT5; type: biochemical, human; settings: Phe225 to Met
Procedure: as §1, §2, §3

[7] = system: CDK4/6 (Rb pS811) in A549 cells; assay: Western blot of Rb phosphorylation at S811; type: cell-based; settings: 20 μM, 4 h
Source text: The retinoblastoma protein (Rb) is phosphorylated by CKDs in cells.
(TIF) Click here for additional data file.

[8] = system: PRMT5-target genes in A549 cells; assay: Real-time PCR of PRMT5-regulated genes; type: cell-based; settings: 50 μM, 24 hrs
Procedure: We identified a set of genes whose expression was altered by silencing PRMT5 expression in lung cancer A549 cells. A549 cells were treated with C9a and EPZ015666 and expression of 6 identified PRMT5-regulated genes was analyzed. […] The future study would use genome-wide approach to determine genes whose expression is affected by PRMT5 inhibitors.
Supplementary file pone.0181601.s005.tif: S5 Fig PRMT5 inhibitors selectively affect PRMT5-target genes in lung cancer cells. RNAs were isolated from cells cultured in the presence of DMSO, EPZ015666 (Sigma-Aldrich) (50 μM), or C9a (50 μM) for 24 hrs and submitted to RT-RCR analysis of gene expression in cancer cell lines. Relative mRNA levels = mRNA in cells treated with PRMT5-inhibtor/mRNA in DMSo-treated cells. (TIF) Click here for additional data file.

[9] = system: MCL xenograft models; set-up: method as in PMID 25915199; settings: cited from earlier work
[10] = single replicate, vs control, actin-normalised, listed as EPZ

T1 sequence (O14744 whole entry): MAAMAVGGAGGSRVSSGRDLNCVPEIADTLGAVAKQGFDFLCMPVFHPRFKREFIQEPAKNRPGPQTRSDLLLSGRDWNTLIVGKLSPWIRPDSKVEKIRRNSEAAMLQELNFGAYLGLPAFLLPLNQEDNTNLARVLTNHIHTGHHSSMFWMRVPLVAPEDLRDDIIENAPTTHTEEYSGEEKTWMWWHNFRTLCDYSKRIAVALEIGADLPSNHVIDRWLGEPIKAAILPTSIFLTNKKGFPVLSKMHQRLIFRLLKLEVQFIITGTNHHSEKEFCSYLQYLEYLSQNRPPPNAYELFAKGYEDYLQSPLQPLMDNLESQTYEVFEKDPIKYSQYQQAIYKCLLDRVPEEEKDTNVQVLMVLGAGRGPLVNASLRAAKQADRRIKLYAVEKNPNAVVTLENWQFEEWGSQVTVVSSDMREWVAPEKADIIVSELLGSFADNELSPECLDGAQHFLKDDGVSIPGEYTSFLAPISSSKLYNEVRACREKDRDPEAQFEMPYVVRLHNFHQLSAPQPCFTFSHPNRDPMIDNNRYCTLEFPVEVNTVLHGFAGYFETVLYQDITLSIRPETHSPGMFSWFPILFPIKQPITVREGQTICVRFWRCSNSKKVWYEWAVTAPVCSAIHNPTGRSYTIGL
T2 sequence (O14744 whole entry F327M): as the sequence (O14744 whole entry) above, with F327M counted along it

CCn1c2ccccc2c2cc(CNCc3ccccc3OC)ccc21.Cl [HLCL-61]
selectivity for PRMT5 [1]: specifically inhibited PRMT5 rather than PRMT1, CARM1, or PRMT7

CCc1ccc(-c2cn3c4ccccc4nc3n2CCN2CCOCC2)cc1 [Compound C6]
cell permeability [2]: not cell-permeable
IC50 [3]: 0.5 µM
IC50 [4]: 7 µM

CCNC(=O)NCCSC[C@H]1O[C@@H](n2cnc3c(N)ncnc32)[C@H](O)[C@@H]1O [DS-437]
IC50 ([1]; AdoMet competitor, cofactor-binding site): 6000 nM

O=C(Nc1nccs1)c1ccc(COc2ccc(F)cc2)o1 [Compound C7]
IC50 [3]: 2.5 µM

COc1nc(Nc2ccc(-c3nc4ccccc4o3)cc2)nc(OC)n1 [Compound C1]
IC50 [3]: 0.5 µM

Cc1ccnc(NC(=O)c2ccc(COc3ccc(Cl)cc3)o2)c1 [Compound C2]
mode of inhibition with regard to SAM [5]: not competitive inhibitors
mode of inhibition with regard to the SmD3 substrate ([5]; double-reciprocal plot): competitive inhibitors
cell permeability [2]: cell-permeable
IC50 [3]: 0.1 µM
increase of IC50 for mutant PRMT5 over wild type PRMT5 [6]: 50 fold
IC50 [4]: 5 µM

CC(=O)c1c(C)c2cnc(Nc3ccc(N4CCNCC4)cn3)nc2n(C2CCCC2)c1=O [Palbociclib, reference compound]
Rb phosphorylation at the site S811 by CDK4/6 [7]: inhibited

O=C(NC[C@H](O)CN1CCc2ccccc2C1)c1cc(NC2COC2)ncn1 [EPZ015666, reference compound]
antitumor activity [9]: demonstrated antitumor activity in multiple MCL xenograft models

Nc1c(C(=O)Nc2ccccc2)sc2nc3c(cc12)CCC3 [Compound C4]
IC50 [3]: 0.6 µM

CCn1c2ccccc2c2cc(CNCc3ccccn3)ccc21 [CMP5]
selectivity for PRMT5 [1]: specifically inhibited PRMT5 rather than PRMT1, CARM1, or PRMT7
